Measurements from patent US20260137697A1, “THIAZOLO[5,4-D]PYRIMIDINE COMPOUNDS, COMPOSITIONS COMPRISING THEM AND USES THEREOF” (University de Montreal, priority 2022, published 2026).
pIC50: −log10 of the molar value.

What was measured:
BRAF = target: T1, BRAF (Homo sapiens, UniProt P15056); test: BRAF kinase activity assay (ADP-Glo); format: biochemical; conditions: Table 3; 10 μM ATP, kinase-dead MEK1 substrate
T1 construct: GST; purchased Millipore Sigma B4062-10UG
In short: (§1)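 ADP-Glo luminescence read after 2 h reactions at 30° C containing 0.375 nM GST-kinase, kinase-dead MEK1 (75 nM), ATP at 10 μM, pH 7.5 HEPES/MgCl2/DTT, 0.05% DMSO. Compounds dosed from 100 to 0.01 nM (nine points); IC50 from variable-slope fit of % inhibition.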

pERK, HCT116 cells = test: Phospho-ERK inhibition, AlphaLISA p-ERK 1/2, HCT-116; format: cell-based, human; conditions: Table 3; for pIC50: HCT116 cells (KRAS G13D), 1 h treatment; for HCT116 pERK (Ymin %): lowest % inhibition value of the pERK IC50 curve, above −20% = no paradoxical induction
In short: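 Cells in RPMI-1640 with 5% FBS plated overnight, then treated 1 h with ten-point dilutions (10 μM to 0.33 nM, 0.5% DMSO). Lysate p-ERK1/2 (Thr202/Tyr204) read by AlphaLISA SureFire Ultra; % inhibition normalised to DMSO and 1 μM trametinib background, IC50 by four-parameter fit.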

CRAF = target: T2, CRAF (Homo sapiens, UniProt P04049); test: CRAF kinase activity assay (ADP-Glo); format: biochemical; conditions: Table 3; 10 μM ATP, kinase-dead MEK1 substrate
T2 construct: fused on or other part: GST tag (N-terminal according to the vendor's product)
T2 sequence (P04049 whole entry Y340E/Y341E, form open, the tested form may be a part): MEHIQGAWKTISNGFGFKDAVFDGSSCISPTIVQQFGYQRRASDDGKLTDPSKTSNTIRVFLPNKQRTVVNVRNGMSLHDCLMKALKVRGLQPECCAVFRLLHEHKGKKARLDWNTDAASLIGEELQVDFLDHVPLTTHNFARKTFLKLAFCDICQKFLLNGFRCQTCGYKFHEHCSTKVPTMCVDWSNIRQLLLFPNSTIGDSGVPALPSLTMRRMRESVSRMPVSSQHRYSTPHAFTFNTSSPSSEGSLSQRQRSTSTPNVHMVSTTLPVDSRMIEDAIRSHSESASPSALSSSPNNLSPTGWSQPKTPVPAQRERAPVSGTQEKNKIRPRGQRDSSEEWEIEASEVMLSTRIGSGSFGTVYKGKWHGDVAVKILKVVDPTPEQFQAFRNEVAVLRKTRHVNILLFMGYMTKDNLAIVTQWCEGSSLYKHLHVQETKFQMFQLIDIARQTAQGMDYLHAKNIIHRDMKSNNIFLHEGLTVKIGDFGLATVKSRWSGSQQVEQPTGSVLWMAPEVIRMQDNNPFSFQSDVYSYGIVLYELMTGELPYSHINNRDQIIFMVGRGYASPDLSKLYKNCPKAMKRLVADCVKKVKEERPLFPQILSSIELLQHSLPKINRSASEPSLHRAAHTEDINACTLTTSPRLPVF
In short: as §1

T1 sequence (P15056 whole entry): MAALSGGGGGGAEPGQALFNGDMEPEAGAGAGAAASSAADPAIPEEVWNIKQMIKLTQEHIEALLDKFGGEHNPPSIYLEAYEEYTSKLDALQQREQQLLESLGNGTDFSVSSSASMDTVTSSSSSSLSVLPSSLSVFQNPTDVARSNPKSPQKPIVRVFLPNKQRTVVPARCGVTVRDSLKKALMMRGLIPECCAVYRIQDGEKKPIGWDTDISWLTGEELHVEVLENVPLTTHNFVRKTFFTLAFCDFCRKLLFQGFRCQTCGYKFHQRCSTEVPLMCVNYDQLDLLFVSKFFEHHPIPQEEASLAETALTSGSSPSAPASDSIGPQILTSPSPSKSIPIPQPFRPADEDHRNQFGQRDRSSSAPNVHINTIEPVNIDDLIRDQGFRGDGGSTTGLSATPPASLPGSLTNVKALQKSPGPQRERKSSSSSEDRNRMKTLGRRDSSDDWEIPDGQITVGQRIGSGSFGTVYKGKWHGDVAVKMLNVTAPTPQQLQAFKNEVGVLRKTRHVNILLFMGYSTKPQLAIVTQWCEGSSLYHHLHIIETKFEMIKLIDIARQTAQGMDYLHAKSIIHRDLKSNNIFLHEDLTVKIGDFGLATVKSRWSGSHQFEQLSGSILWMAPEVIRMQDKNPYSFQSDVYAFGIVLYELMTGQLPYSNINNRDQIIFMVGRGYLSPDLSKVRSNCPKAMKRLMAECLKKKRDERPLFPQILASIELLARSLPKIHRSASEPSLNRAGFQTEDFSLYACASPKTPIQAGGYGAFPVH

Row | Compound | pIC50 (BRAF) | pIC50 (pERK, HCT116 cells) | pIC50 (CRAF) | pIC50 (pERK, HCT116 cells; Homo sapiens, HCT-116) | HCT116 pERK (Ymin %) (pERK, HCT116 cells) [%]
1 | COCCC(=O)c1cn(-c2nc3c(Nc4c(F)ccc(NS(=O)(=O)c5cccc(Cl)c5Cl)c4F)ncnc3s2)c2ccccc12 [Example 106] | < 8.00 | – | 7.30 to 8.00 | 6.00 to 6.30 | –
2 | O=C(c1cccs1)c1cn(-c2nc3c(Nc4c(F)ccc(NS(=O)(=O)c5cccc(Cl)c5Cl)c4F)ncnc3s2)c2ccccc12 [Example 107] | < 8.00 | – | < 7.30 | 5.00 to 6.00 | –
3 | O=S(=O)(Nc1ccc(F)c(Nc2ncnc3sc(-n4cnc(-c5ccccc5)c4)nc23)c1F)c1cccc(Cl)c1Cl [Example 109] | < 8.00 | 6.00 to 6.30 | < 7.30 | – | −13
4 | CC1(O)CCN(c2cccc3c2ncn3-c2nc3c(Nc4c(F)ccc(NS(=O)(=O)c5cccc(Cl)c5Cl)c4F)ncnc3s2)CC1 [Example 113] | 8.00 to 9.00 | – | 7.30 to 8.00 | > 6.30 | –
5 | O=S(=O)(Nc1ccc(F)c(Nc2ncnc3sc(-n4ccc5ccccc54)nc23)c1F)c1cccc(Cl)c1Cl [Example 114] | < 8.00 | 5.00 to 6.00 | < 7.30 | – | −14
6 | O=S(=O)(Nc1ccc(F)c(Nc2ncnc3sc(-n4ccc5ncccc54)nc23)c1F)c1cccc(Cl)c1Cl [Example 115] | 8.00 to 9.00 | > 6.30 | > 8.00 | – | −11
7 | Cc1c(Cl)cccc1S(=O)(=O)Nc1ccc(F)c(Nc2ncnc3sc(-n4cnc5c(C(C)(C)C#N)cccc54)nc23)c1F [Example 116] | 8.00 to 9.00 | > 6.30 | 7.30 to 8.00 | – | −3
8 | COc1ccc(S(=O)(=O)Nc2ccc(F)c(Nc3ncnc4sc(-n5cnc6c(C(C)(C)C#N)cccc65)nc34)c2F)c(C)c1Cl [Example 117] | < 8.00 | 6.00 to 6.30 | 7.30 to 8.00 | – | −15
9 | COc1ccc(S(=O)(=O)Nc2ccc(F)c(Nc3ncnc4sc(-n5cnc6c(C(C)(C)C#N)cccc65)nc34)c2F)c(C)c1F [Example 118] | < 8.00 | > 6.30 | < 7.30 | – | −14
10 | N#Cc1cccc2c1ncn2-c1nc2c(Nc3c(F)ccc(NS(=O)(=O)c4cccc(Cl)c4Cl)c3F)ncnc2s1 [Example 120] | 8.00 to 9.00 | – | > 8.00 | > 6.30 | –
11 | O=S(=O)(Nc1ccc(F)c(Nc2ncnc3sc(-n4cnc(CCO)c4)nc23)c1F)c1cccc(Cl)c1Cl [Example 121] | 8.00 to 9.00 | 6.00 to 6.30 | 7.30 to 8.00 | – | −11
12 | NC(=O)c1cccc2c1ncn2-c1nc2c(Nc3c(F)ccc(NS(=O)(=O)c4cccc(Cl)c4Cl)c3F)ncnc2s1 [Example 123] | 8.00 to 9.00 | > 6.30 | > 8.00 | – | −11
13 | N#CCc1cn(-c2nc3c(Nc4c(F)ccc(NS(=O)(=O)c5cccc(Cl)c5Cl)c4F)ncnc3s2)cn1 [Example 124] | 8.00 to 9.00 | > 6.30 | > 8.00 | – | 12
14 | Cc1cn(-c2nc3c(Nc4c(F)ccc(NS(=O)(=O)c5cccc(Cl)c5Cl)c4F)ncnc3s2)cn1 [Example 125] | 8.00 to 9.00 | 6.00 to 6.30 | > 8.00 | – | 2
15 | O=S(=O)(Nc1ccc(F)c(Nc2ncnc3sc(-n4cnc5c(N6CC7CC6CO7)cccc54)nc23)c1F)c1cccc(Cl)c1Cl (centres unmarked) [Example 127] | 8.00 to 9.00 | > 6.30 | 7.30 to 8.00 | – | 1
16 | COCCCN(C)c1cccc2c1ncn2-c1nc2c(Nc3c(F)ccc(NS(=O)(=O)c4cccc(Cl)c4Cl)c3F)ncnc2s1 [Example 128] | 8.00 to 9.00 | > 6.30 | 7.30 to 8.00 | – | 1
17 | O=S(=O)(Nc1ccc(F)c(Nc2ncnc3sc(-n4cnc5c(N6C7CCC6CC(O)C7)cccc54)nc23)c1F)c1cccc(Cl)c1Cl (centres unmarked) [Example 129] | 8.00 to 9.00 | > 6.30 | < 7.30 | – | 0
18 | COCCOCCOc1cccc2c1ncn2-c1nc2c(Nc3c(F)ccc(NS(=O)(=O)c4cccc(Cl)c4Cl)c3F)ncnc2s1 [Example 131] | 8.00 to 9.00 | > 6.30 | > 8.00 | – | 0
19 | COC[C@@H]1CCCN1c1cccc2c1ncn2-c1nc2c(Nc3c(F)ccc(NS(=O)(=O)c4cccc(Cl)c4Cl)c3F)ncnc2s1 [Example 132] | < 8.00 | 5.00 to 6.00 | < 7.30 | – | −11
20 | Nc1ccncc1-c1cccc2c1ncn2-c1nc2c(Nc3c(F)ccc(NS(=O)(=O)c4cccc(Cl)c4Cl)c3F)ncnc2s1 [Example 133] | 8.00 to 9.00 | 5.00 to 6.00 | 7.30 to 8.00 | – | −12
21 | Nc1ncccc1-c1cccc2c1ncn2-c1nc2c(Nc3c(F)ccc(NS(=O)(=O)c4cccc(Cl)c4Cl)c3F)ncnc2s1 [Example 134] | 8.00 to 9.00 | > 6.30 | 7.30 to 8.00 | – | −5
22 | COC1(C)CCN(c2cccc3c2ncn3-c2nc3c(Nc4c(F)ccc(NS(=O)(=O)c5cccc(Cl)c5Cl)c4F)ncnc3s2)CC1 [Example 135] | 8.00 to 9.00 | > 6.30 | < 7.30 | – | −5
23 | O=S(=O)(Nc1ccc(F)c(Nc2ncnc3sc(-n4cnc5c(N6CCC7(CCCO7)CC6)cccc54)nc23)c1F)c1cccc(Cl)c1Cl [Example 136] | < 8.00 | > 6.30 | 7.30 to 8.00 | – | −17
24 | O=S(=O)(Nc1ccc(F)c(Nc2ncnc3sc(-n4cnc5c(N6CCC(O)(C(F)(F)F)CC6)cccc54)nc23)c1F)c1cccc(Cl)c1Cl [Example 137] | < 8.00 | > 6.30 | < 7.30 | – | −14
25 | CC1(CO)CCN(c2cccc3c2ncn3-c2nc3c(Nc4c(F)ccc(NS(=O)(=O)c5cccc(Cl)c5Cl)c4F)ncnc3s2)CC1 [Example 138] | < 8.00 | > 6.30 | < 7.30 | – | −14
26 | COC1CCN(c2cccc3c2ncn3-c2nc3c(Nc4c(F)ccc(NS(=O)(=O)c5cccc(Cl)c5Cl)c4F)ncnc3s2)CC1 [Example 139] | 8.00 to 9.00 | > 6.30 | 7.30 to 8.00 | – | −13

Now from value to molecule, other results behind:

Row | pIC50 (BRAF) | pIC50 (pERK, HCT116 cells) | pIC50 (CRAF) | pIC50 (pERK, HCT116 cells; Homo sapiens, HCT-116) | Compound | HCT116 pERK (Ymin %) (pERK, HCT116 cells) [%]
27 | 8.00 to 9.00 | > 6.30 | > 8.00 | – | O=C(c1cn(-c2nc3c(Nc4c(F)ccc(NS(=O)(=O)c5cccc(Cl)c5Cl)c4F)ncnc3s2)c2ccc(F)cc12)N1C2CCC1COC2 [Example 102] | 0
28 | 8.00 to 9.00 | 6.00 to 6.30 | > 8.00 | – | Cc1ncn(-c2nc3c(Nc4c(F)ccc(NS(=O)(=O)c5cccc(Cl)c5Cl)c4F)ncnc3s2)c1C [Example 103] | −7
29 | 8.00 to 9.00 | > 6.30 | 7.30 to 8.00 | – | CC(C)(C#N)c1cccc2c1ncn2-c1nc2c(Nc3c(F)ccc(NS(=O)(=O)c4cccc(Cl)c4Cl)c3F)ncnc2s1 [Example 104] | −10
30 | 8.00 to 9.00 | > 6.30 | > 8.00 | – | COc1nccc2c1ncn2-c1nc2c(Nc3c(F)ccc(NS(=O)(=O)c4cccc(Cl)c4Cl)c3F)ncnc2s1 [Example 105] | 4
31 | 8.00 to 9.00 | > 6.30 | 7.30 to 8.00 | – | CCOc1cccc2c1ccn2-c1nc2c(Nc3c(F)ccc(NS(=O)(=O)c4cccc(Cl)c4Cl)c3F)ncnc2s1 [Example 108] | −10
32 | 8.00 to 9.00 | – | 7.30 to 8.00 | > 6.30 | O=C1CCCN1c1cn(-c2nc3c(Nc4c(F)ccc(NS(=O)(=O)c5cccc(Cl)c5Cl)c4F)ncnc3s2)c2ccccc12 [Example 110, 2,3-dichloro-N-[2,4-difluoro-3-[[2-[3-(2-oxopyrrolidin-1-yl)indol-1-yl]thiazolo[5,4-d]pyrimidin-7-yl]amino]phenyl]benzenesulfonamide] | –
33 | > 9.00 | > 6.30 | > 8.00 | – | O=S(=O)(Nc1ccc(F)c(Nc2ncnc3sc(-n4cnc5c(OCCO)cccc54)nc23)c1F)c1cccc(Cl)c1Cl [Example 111] | −10
34 | 8.00 to 9.00 | > 6.30 | > 8.00 | – | Cc1c(F)cccc1S(=O)(=O)Nc1ccc(F)c(Nc2ncnc3sc(-n4cnc5c(C(C)(C)C#N)cccc54)nc23)c1F [Example 112] | 7
35 | > 9.00 | > 6.30 | > 8.00 | – | COCCOc1cccc2c1ncn2-c1nc2c(Nc3c(F)ccc(NS(=O)(=O)c4cccc(Cl)c4Cl)c3F)ncnc2s1 [Example 119] | −1
36 | > 9.00 | > 6.30 | > 8.00 | – | O=S(=O)(Nc1ccc(F)c(Nc2ncnc3sc(-n4cnc5c(CCO)cccc54)nc23)c1F)c1cccc(Cl)c1Cl [Example 126] | −9
37 | > 9.00 | > 6.30 | > 8.00 | – | CC(=O)N1CCN(c2cccc3c2ncn3-c2nc3c(Nc4c(F)ccc(NS(=O)(=O)c5cccc(Cl)c5Cl)c4F)ncnc3s2)CC1 [Example 130] | −2
